This note sets out measurements from PubChem BioAssay AID977613 (Broad Institute, 2014).

The structures appear in SMILES notation. Active and inactive are the calls of the source. The rule behind the calls is not given here.

The experiment has as its system Broad 7084-01 inhibitor HTS, set 2. Put plainly: single-concentration hits, screen 7084 set 2 (AID 977613).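 Note: host cells are infected with parasite promastigotes that become internalized.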

With `O=C(C[C@@H]1CC[C@@H]2[C@H](COC[C@H](O)CN2CCC(F)(F)F)O1)NCC1CC1`, the active concentration is > 10 µM (inactive).
The value for `COc1cccc(NC(=O)Nc2ccc3c(c2)C(=O)N(C)[C@H]2CC[C@H](CC(=O)NCCc4ccccc4)O[C@@H]2CO3)c1` was > 10 µM (inactive); that for `O=C(C[C@H]1CC[C@@H]2[C@H](COC[C@@H](O)CN2C(=O)Nc2ccc(Cl)cc2)O1)NCC1CC1` was > 10 µM (inactive).
The value for `C/C=C/c1ccc([C@H]2[C@@H](CO)N3C(=O)CN(C(=O)c4ccncc4)C[C@@H]23)cc1` was > 10 µM (inactive); that for `COc1ccccc1C#Cc1ccc2c(c1)[C@@H]1[C@@H](CCN1C(C)=O)[C@@H](CO)N2C` was > 10 µM (inactive); that for `C/C=C/c1ccc([C@@H]2[C@@H](CO)N3C(=O)CN(C(=O)c4ccncc4)C[C@H]23)cc1` was > 10 µM (inactive).
The value for `O=C(C1CCOCC1)N1CC(=O)N2[C@@H](CO)[C@H](c3ccc(C#CCc4ccccc4)cc3)[C@@H]2C1` was > 10 µM (inactive); that for `COc1cccc(NC(=O)N2CC(=O)N3[C@@H](CO)[C@H](c4ccc(C5=CCCCC5)cc4)[C@@H]3C2)c1` was > 10 µM (inactive); that for `N#C[C@@H]1[C@@H](c2ccccc2-c2ccccc2F)[C@@H](CO)N1C(=O)Cc1ccccc1` was > 10 µM (inactive).
Take `Cc1ccc(NC(=O)C[C@H]2CC[C@H]3[C@@H](COc4ccc(NC(=O)C5CCC5)cc4C(=O)N3C)O2)cc1`: the active concentration was > 10 µM (inactive).
The value for `O=C(C[C@@H]1CC[C@H]2[C@@H](COC[C@@H](O)CN2C(=O)c2ccc3c(c2)OCO3)O1)NC1CCC1` was > 10 µM (inactive).
The value for `CCCNC(=O)N1[C@H](CO)[C@H](c2ccccc2-c2cccc(OC)c2)[C@@H]1C#N` was > 10 µM (inactive); that for `Cc1nn(C)cc1NC(=O)C[C@@H]1CC[C@@H]2[C@H](COc3ccc(NC(=O)C4CCOCC4)cc3C(=O)N2C)O1` was > 10 µM (inactive); that for `O=C(Nc1cc(F)ccc1F)N1CCCCN2[C@H](C1)[C@H](c1ccc(C3=CCCCC3)cc1)[C@@H]2CO` was > 10 µM (inactive).
The value for `Cc1ccccc1-c1ccccc1[C@@H]1[C@H](C#N)N(C(=O)c2ccccc2)[C@H]1CO` was > 10 µM (inactive); that for `O=C(CC(F)(F)F)N1C[C@H]2[C@@H](c3ccccc31)[C@@H](CO)N2CC1CCOCC1` was > 10 µM (inactive); that for `COc1ccc(NC(=O)N2CC(=O)N3[C@@H](CO)[C@H](c4ccc(Br)cc4)[C@@H]3C2)cc1` was > 10 µM (inactive).
Regarding `O=C(c1ccccn1)N1CC[C@@H]2[C@@H](CO)Nc3ccc(Br)cc3[C@@H]21`, the active concentration was > 10 µM (inactive).
The value for `COc1ccccc1-c1ccc2n(c1=O)C[C@H]1[C@H](CO)[C@@H](C(=O)NCc3ccccc3Cl)N[C@@H]21` was > 10 µM (inactive); that for `COc1ccc(NC(=O)N2CC[C@@H]3[C@H]2c2cc(Br)ccc2N(C)[C@H]3CO)cc1` was > 10 µM (inactive).
The value for `O=C(C[C@H]1CC[C@@H]2[C@H](COC[C@@H](O)CN2Cc2ccccc2)O1)NCCc1ccccc1` was > 10 µM (inactive); that for `O=C(C[C@@H]1CC[C@H]2[C@@H](COC[C@H](O)CN2Cc2cccc(C(F)(F)F)c2)O1)NCc1ccccc1` was > 10 µM (inactive); that for `O=C(NCc1cc(F)cc(F)c1)[C@@H]1[C@@H](CO)[C@@H]2Cn3c(cccc3=O)[C@H]1N2` was > 10 µM (inactive).
The value for `O=C(C[C@H]1CC[C@H]2[C@@H](COC[C@@H](O)CN2C(=O)c2ccc3c(c2)OCO3)O1)NC1CCC1` was > 10 µM (inactive); that for `COc1ccc(C#Cc2ccc3c(c2)[C@H]2[C@H](CCN2C(=O)c2cccc(F)c2)[C@@H](CO)N3)cc1` was > 10 µM (inactive); that for `O=C([C@H]1[C@H](CO)[C@H]2Cn3c(cccc3=O)[C@H]2N1Cc1ccccc1Cl)N1CCCCC1` was > 10 µM (inactive).
For the compound `O=C([C@@H]1[C@@H](CO)[C@@H]2Cn3c(ccc(C4=CCCCC4)c3=O)[C@H]1N2Cc1nccs1)N1CCCCC1`, the active concentration is > 10 µM (inactive).
Regarding `N#C[C@@H]1[C@H](c2ccccc2C2=CCCC2)[C@@H](CO)N1C(=O)CN1CCOCC1`, the active concentration was > 10 µM (inactive).
The value for `O=C(c1cccnc1)N1C[C@H]2[C@@H](c3ccccc31)[C@H](CO)N2Cc1ccc2c(c1)OCO2` was > 10 µM (inactive); that for `O=C(C[C@H]1CC[C@H]2[C@@H](COC[C@H](O)CN2C(=O)Nc2cc(Cl)cc(Cl)c2)O1)NCC1CCCCC1` was > 10 µM (inactive); that for `N#Cc1ccc(-c2ccc3c(c2)[C@H]2[C@H](CCN2C(=O)C2CCCCC2)[C@H](CO)N3)cc1` was > 10 µM (inactive).
The value for `Cc1noc(C)c1NC(=O)N1C[C@@H](O)COC[C@H]2O[C@H](CC(=O)NCC3CCCCC3)CC[C@@H]21` was > 10 µM (inactive); that for `Cc1ccccc1-c1ccc([C@H]2[C@H]3CN(S(=O)(=O)Cc4ccccc4)CCCCN3[C@H]2CO)cc1` was > 10 µM (inactive); that for `O=C1CNC[C@H]2[C@H](c3ccc(C4=CCCC4)cc3)[C@@H](CO)N12` was > 10 µM (inactive).
The value for `CN(C)CC#Cc1ccc([C@@H]2[C@@H](CO)N3C(=O)CN(C(=O)CN(C)C)C[C@H]23)cc1` was > 10 µM (inactive); that for `COCC(=O)N1CC2(C1)CN(Cc1nccs1)[C@@H](CO)c1c2c2ccc(OC)cc2n1C` was > 10 µM (inactive); that for `C[C@H](NC(=O)[C@H]1[C@H](CO)[C@H]2Cn3c(ccc(/C=C/c4ccccc4)c3=O)[C@@H]1N2)c1ccccc1` was > 10 µM (inactive).
In the case of `COc1ccc(NC(=O)N2CCCCN3[C@H](C2)[C@@H](c2ccc(-c4ccccc4F)cc2)[C@@H]3CO)cc1`, the active concentration was > 10 µM (inactive).
The value for `CN1[C@@H]2CN(C(=O)C3CCCCC3)c3ccccc3[C@@H]2[C@@H]1CO` was > 10 µM (inactive); that for `O=C(Cc1ccccn1)N1CC2(C1)[C@H](c1ccccc1)[C@@H](CO)N2C(=O)c1cccnc1` was > 10 µM (inactive); that for `O=C(C[C@H]1CC[C@@H]2[C@H](COC[C@@H](O)CN2Cc2cccc(F)c2)O1)NCc1cccc(F)c1` was > 10 µM (inactive).
Regarding `CC=Cc1ccc2n(c1=O)C[C@H]1[C@H](CO)[C@@H](C(=O)Nc3ccc(-c4ccccc4)cc3)[C@@H]2N1C(=O)CC` (mixture of isomers), the active concentration was > 10 µM (inactive).
As to `CCC(=O)N1[C@H](CO)[C@H](c2ccccc2)C12CN(C(=O)c1ccc3c(c1)OCO3)C2`, the active concentration was > 10 µM (inactive).
As to `O=C(C[C@@H]1CC[C@@H]2[C@H](COC[C@H](O)CN2C(=O)c2ccc(F)cc2)O1)NCc1cccc(F)c1`, the active concentration was > 10 µM (inactive).
The value for `COc1ccc2c3c([nH]c2c1)[C@@H](CO)N(Cc1ccccc1F)CC31CN(CC2CC2)C1` was > 10 µM (inactive); that for `N#C[C@H]1[C@@H](c2ccccc2-c2ccccc2F)[C@@H](CO)N1C(=O)Cc1ccccc1` was > 10 µM (inactive).
